The values that follow come from patent US5739302A, “Manufacture and use of novel glycosides of catechol estrogens” (priority 1991, dated 1998).

≈ marks a conversion by molar mass, not a printed value. Like-named read-outs stand apart in the source and are kept apart here.

A short description of data set [1]: Solubility in water. Type of data set: physicochemical. The procedure: For example, the volume of water required to dissolve 1 mg of various glycosides is as following; 2 to 3 ml for 17-glucoside, 2 ml for 17-maltoside, 0.7 ml for 2-glucoside, and 3 ml for 3-glucoside, while 1 mg of 2-hydroxyestradiol cannot be dissolved in 3 ml of water. Accordingly, the glycosides obtained in the present invention provide a way to prepare an injection containing the same.

Data set [2] deals with rat brain homogenate. Briefly: Inhibitory effect on the lipid peroxidation of rat brain homogenate (thiobarbituric acid method). Type of data set: biochemical. The note with it: for amount of lipid peroxides in terms of malondialdehyde: 37° C. The procedure: (Inhibitory effect of 2-hydroxyestradiol 2-glucoside on the lipid peroxidation of rat brain homogenate)
2-Hydroxyestradiol 2-(β-D-glucopyranoside) (2-OHE2 2-Glu) obtained according to the method of this invention (Example 16) was dissolved in water to give a concentration of 1 mM or 0.5 mM. The reaction mixture contains the followings in a final volume of 2 ml; 1.98 ml of rat brain homogenate (10 mg protein/ml) and 2-OHE2 2-Glu at a concentration of 5 μM or 10 μM. After incubation at 37° C., lipid peroxide level was determined by the thiobarbituric acid method.
Values in Table 2 indicate the amount of lipid peroxides (nmol/mg protein
in terms of malondialdehyde.

The test system of data set [3] is rat liver homogenate. Briefly: Inhibitory effect on the lipid peroxidation of rat liver homogenate (thiobarbituric acid method). It is filed as biochemical. The note with it: 10 μM; 4 hours at 37° C. The procedure: (Inhibitory effect of 2-hydroxyestradiol 2-glucoside on the lipid peroxidation of rat liver homogenate)
A rat liver homogenate was prepared in 4 volume of 0.15M KCl .2-OHE2 2-Glu was dissolved in distilled water and 2-OHE2, in 1% DMSO, to give a final concentration of 1 mM. The reaction mixture contained the followings in a final volume of 2 ml; 1.98 ml of rat liver homogenate (10 mg protein/ml) and 10 μM either 2-PHE2 2-Glu or 2-OHE2. As blank tests, the same volume of distilled water or 1% DMSO was added in place of 2-OHE2 2-Glu or 2-OHE2. After incubation for 4 hours at 37° C., lipid peroxide level was determined by the thiobarbituric acid method.

The nature of data set [4]: Acute toxicity (intraperitoneal injection). Particulars: mouse, in vivo, ip; male ddY mice, intraperitoneal; 2 weeks. It is filed as in vivo, mouse. As for the experimental part:
(§1) Male mice of ddY strain were received 2-OHE2 17-Glu or 2-OHE2 2-Glu by an intraperitoneal injection at doses of 250 mg, 500 mg, 750 mg, or 1000 mg/kg body weight.

The subject of data set [5] is Male mice of ddY strain. Description: Acute toxicity (intraperitoneal injection). Type of data set: in vivo, mouse. Particulars: 250, 500, 750 or 1000 mg/kg i.p.; observation period of 2 weeks. As for the experimental part:
as §1

Data set [6] deals with red blood cells. Description: Incorporation of glycosides of 2-hydroxyestradiol into red blood cells. It is filed as in vitro ADME. The procedure: (§2) (Incorporation of glycosides of 2-hydroxyestradiol into red blood cells)
(§3) The reaction mixture contained 0.2 nmol of 2-OHE2, 2-OHE2 17-Glu, or 2-hydroxyestradiol 17-(β-maltoside) (2-OHE2 17-Mal, obtained in Example 5) in 0.1 ml of 0.2% DMSO-0.1% ascorbic acid in phosphate buffered saline (PBS) and 0.9 ml of suspension of red blood cells in PBS. After incubation at 37° C. for several intervals, the mixture was centrifuged and supernatant fraction was obtained, and then the amount of each glycoside of 2-hydroxyestradiol remained in the supernatant was determined by HPLC.
(§4) Values in Table 3 indicate residual amount (%) in the incubation medium.

The test system of data set [7] is low-density lipoprotein (LDL). Briefly: Inhibitory effect on the lipid peroxidation of low-density lipoprotein (CuSO4-induced; methylene blue method). Type of data set: biochemical, rabbit (hypercholesterolemic). The note with it: for amount of lipid peroxides: LDL + CuSO4, 5 nmol compound in 1 ml. As for the experimental part: (Inhibitory effect of 2-hydroxyestradiol 17-glucoside on the lipid peroxidation of low-density lipoprotein)
Low-density lipoprotein (LDL) was prepared from hypercholesterolemic rabbit serum. 2-Hydroxyestradiol 17-(β-D-glucopyranoside) (2-OHE2 17-Glu) obtained according to the method of this invention (Example 4 ) was dissolved in distilled water and 2-hydroxyestradiol (2-OHE2) as a reference compound, in dimethylsulfoxide (DMSO), to give a final concentration of 500 μM. The reaction mixture contained the followings in a final volume of 1 ml: 500 μg of LDL; 5 nmol of CuSO4; and 5 nmol of either 2-OHE2 17-Glu or 2-OHE2. As blank tests, distilled water or DMSO was added in place of 2-OHE2 17-Glu or 2-OHE2. After incubation for a definite time at […], the amount of lipid hydroperoxides generated was determined by the methylene blue method.
Values in TABLE 1 indicate the amount of lipid peroxides (nmol/mg

A short description of data set [8]: Incorporation of glycosides of 2-hydroxyestradiol into red blood cells. It is filed as in vitro ADME. The note with it: red blood cell suspension, 0.2 nmol compound, 37° C., read-out: residual amount in the incubation medium. The procedure: as §2, §3, §4

As for `C[C@]12CC[C@@H]3c4cc(O[C@@H]5O[C@H](CO)[C@@H](O)[C@H](O)[C@H]5O)c(O)cc4CC[C@H]3[C@@H]1CC[C@@H]2O` [2-OHE2 2-Glu, 2-Hydroxyestradiol 2-(β-D-glucopyranoside)], the solubility is 0.5 to 1 mL in data set [1] and 1.43 mg/mL (≈ 3170 µM) in data set [1] (water). Moreover, the “inhibition of the lipid peroxidation (in words)” value in data set [2] (5 μM and 10 μM) was “strongly inhibited the lipid peroxidation in a concentration dependent manner”. The “amount of lipid peroxides in terms of malondialdehyde” value in data set [2] (5 μM, incubation 0 hr) came out at 0.271 nmol/mg protein; in data set [2] (5 μM, incubation 1 hr), 1.124 nmol/mg protein; in data set [2] (5 μM, incubation 2 hr) it was 1.867 nmol/mg protein; in data set [2] (5 μM, incubation 4 hr) it was 3.167 nmol/mg protein; in data set [2] (10 μM, incubation 0 hr), 0.271 nmol/mg protein; in data set [2] (10 μM, incubation 1 hr), 0.905 nmol/mg protein. Moreover, the “amount of lipid peroxides in terms of malondialdehyde” value in data set [2] (10 μM, incubation 2 hr) amounted to 1.326 nmol/mg protein; in data set [2] (10 μM, incubation 4 hr), 1.534 nmol/mg protein. In data set [3], the “inhibition of the lipid peroxidation” value is 77%. The same compound yielded an LD50 at 336 h in data set [4] of over 100 mg/kg. In addition, the “abnormal symptoms (in words)” value in data set [5] is reported as “no abnormal symptom was found”. In data set [5], the “survival (in words)” value is recorded as “All mice survived”.
Take `C[C@]12CC[C@@H]3c4cc(O)c(O)cc4CC[C@H]3[C@@H]1CC[C@@H]2O[C@@H]1O[C@H](CO)[C@@H](O[C@H]2O[C@H](CO)[C@@H](O)[C@H](O)[C@H]2O)[C@H](O)[C@H]1O` [2-OHE2 17-Mal, 2-hydroxyestradiol 17-(β-maltoside)]: the “incorporation into red blood cells (in words)” value in data set [6] was “markedly retarded as compared with that of 2-OHE2”. Also, the solubility in data set [1] was 2 mL; in data set [1] (water), 0.5 mg/mL (≈ 816 µM).
Take `C[C@]12CC[C@@H]3c4cc(O)c(O[C@@H]5O[C@H](CO)[C@@H](O)[C@H](O)[C@H]5O)cc4CC[C@H]3[C@@H]1CC[C@@H]2O` [2-Hydroxyestradiol 3-(β-D-glucopyranoside)]: the solubility was 3 mL in data set [1] and 0.333 mg/mL (≈ 740 µM) in data set [1] (water).
`C[C@]12CC[C@@H]3c4cc(O)c(O)cc4CC[C@H]3[C@@H]1CC[C@@H]2O[C@@H]1O[C@H](CO)[C@@H](O)[C@H](O)[C@H]1O` [2-OHE2 17-Glu, 2-Hydroxyestradiol 17-(β-D-glucopyranoside)]: the “incorporation into red blood cells (in words)” value in data set [6] is listed as “markedly retarded as compared with that of 2-OHE2”. Also, the results for the solubility in data set [1] and in data set [1] (water) were 2 to 3 mL and 0.333 to 0.5 mg/mL (≈ 740 to 1110 µM), respectively. Also, the “amount of lipid peroxides” value in data set [7] (incubation 1 hr) amounted to 8.93 nmol/mg protein; in data set [7] (incubation 2 hr) it was 19.48 nmol/mg protein; in data set [7] (incubation 3 hr), 24.76 nmol/mg protein; in data set [7] (incubation 4 hr) it was 32.17 nmol/mg protein. The “inhibitory potency on LDL peroxidation (in words)” value in data set [7] (compared with 2-OHE2) was “the same to that of 2-OHE2”. The “inhibition of the peroxidation of LDL (in words)” value in data set [7] (in words) is “clearly inhibited the peroxidation of LDL”. In data set [4], the median lethal dose (LD50) at 336 h is over 100 mg/kg. In addition, the “abnormal symptoms (in words)” value in data set [5] was “no abnormal symptom was found”. The “survival (in words)” value in data set [5] is “All mice survived”.
As to `C[C@]12CC[C@@H]3c4cc(O)c(O)cc4CC[C@H]3[C@@H]1CC[C@@H]2O` [Example 2-OHE2, 2-hydroxyestradiol, reference compound], the remaining at 0.5 min in data set [8] (0.5 min) came to 4.4%. Besides, the remaining at 1 min in data set [8] (1.0 min) was determined as 4.4%. For the same compound, the remaining at 2 min in data set [8] (2.0 min) stood at 3.7%. In addition, in data set [1] (per 1 mg, water, read-out: volume of water required to dissolve 1 mg), the solubility was under 0.333 mg/mL. Further, the “amount of lipid peroxides” value in data set [7] (incubation 1 hr) was determined as 17.45 nmol/mg protein; in data set [7] (incubation 2 hr) it was 24.55 nmol/mg protein; in data set [7] (incubation 3 hr), 27.29 nmol/mg protein; in data set [7] (incubation 4 hr), 30.74 nmol/mg protein. In addition, the “inhibition of the lipid peroxidation” value in data set [3] is 73%.
